How the values were obtained:
[1] = tested on: transgenic Arabidopsis plants overexpressing Barley HPPD (Seq ID: 2); assay: Arabidopsis growth inhibition in 48-well plates, line overexpressing Barley HPPD; type: in vivo, Arabidopsis thaliana; conditions: Barley (Seq ID: 2) overexpression line; plant growth IC50 of transgenic divided by that of wildtype plants
From the text: Various methods for the production of stably transformed plants are well known in the art. Coumarone-derivative herbicide tolerant soybean (Glycine max) or corn (Zea mays) plants can be produced by a method described by Olhoft et al. (US patent 2009/0049567). Briefly, HPPD or HST encoding polynucleotides are cloned into a binary vector using standard cloning techniques as described by Sambrook et al. (Molecular cloning (2001) Cold Spring Harbor Laboratory Press). The final vector construct contains an HPPD or HST encoding sequence flanked by a promoter sequence (e.g. the ubiquitin promoter (PcUbi) sequence) and a terminator sequence (e.g. the nopaline synthase terminator (NOS) sequence) and a resistance marker gene cassette (e.g. AHAS) (FIG. 2). Optionally, the HPPD or HST gene can provide the means of selection. Agrobacterium-mediated transformation is used to introduce the DNA into soybean's axillary meristem cells at the primary node of seedling explants. After inoculation and co-cultivation with Agrobacteria, the explants are transferred to shoot induction medium without selection for one week. […]
Depending on the species, the plants are kept at 10-25° C. or 20-35° C. […] During this time, the plants are tended and their response to the individual treatments is evaluated. […] Tolerance to coumarone-derivative herbicides can also be assessed in Arabidopsis. […]

[2] = tested on: transgenic soybean plants, Arabidopsis M335H, event SDS-9977; assay: Greenhouse testing of transgenic soybean plants, Arabidopsis M335H; type: in vivo, Glycine max; conditions: soybean SDS-9977, 5 days after herbicide treatment, average of 8 T1
From the text: (§1) Various methods for the production of stably transformed plants are well known in the art. Coumarone-derivative herbicide tolerant soybean (Glycine max) or corn (Zea mays) plants can be produced by a method described by Olhoft et al. (US patent 2009/0049567). Briefly, HPPD or HST encoding polynucleotides are cloned into a binary vector using standard cloning techniques as described by Sambrook et al. (Molecular cloning (2001) Cold Spring Harbor Laboratory Press). The final vector construct contains an HPPD or HST encoding sequence flanked by a promoter sequence (e.g. the ubiquitin promoter (PcUbi) sequence) and a terminator sequence (e.g. the nopaline synthase terminator (NOS) sequence) and a resistance marker gene cassette (e.g. AHAS) (FIG. 2). Optionally, the HPPD or HST gene can provide the means of selection. Agrobacterium-mediated transformation is used to introduce the DNA into soybean's axillary meristem cells at the primary node of seedling explants. After inoculation and co-cultivation with Agrobacteria, the explants are transferred to shoot induction medium without selection for one week. The explants are subsequently transferred to shoot induction medium with 1-3 μM imazapyr (Arsenal) for 3 weeks to select for transformed cells. Explants with healthy callus/shoot pads at the primary node are then transferred to shoot elongation medium containing 1-3 μM imazapyr until a shoot elongates or the explant dies. After regeneration, transformants are transplanted to soil in small pots, placed in growth chambers (16 hr day/8 hr night; 25° C. day/23° C. night; 65% relative humidity; 130-150 mE m−2 s−1) and subsequently tested for the presence of the T-DNA via Taqman analysis. After a few weeks, healthy, transgenic positive, single copy events are transplanted to larger pots and allowed to grow in the growth chamber. Transformation of corn plants is done by a method described by McElver and Singh (WO 2008/124495). Plant transformation vector constructs containing HPPD or HST sequences are introduced into maize immature embryos via Agrobacterium-mediated transformation. Transformed cells are selected in selection media supplemented with 0.5-1.5 μM imazethapyr for 3-4 weeks. Transgenic plantlets are regenerated on plant regeneration media and rooted afterwards. Transgenic plantlets are subjected to TaqMan analysis for the presence of the transgene before being transplanted to potting mixture and grown to maturity in greenhouse. Arabidopsis thaliana is transformed with HPPD or HST sequences by floral dip method as described by McElver and Singh (WO 2008/124495). Transgenic Arabidopsis plants are subjected to Tag Man analysis for analysis of the number of integration loci. Transformation of Oryza sativa (rice) are done by protoplast transformation as described by Peng et al. (U.S. Pat. No. 6,653,529)
(§2) Transgenic plants expressing heterologous HPPD or HST enzymes are tested for tolerance against coumarone-derivative herbicides in greenhouse experiments.
(§3) For post emergence treatment, the test plants are first grown to a height of 3 to 15 cm, depending on the plant habit, and only then treated with the herbicides. For this purpose, the test plants are either sown directly and grown in the same containers, or they are first grown separately and transplanted into the test containers a few days prior to treatment.
(§4) Depending on the species, the plants are kept at 10-25° C. or 20-35° C. The test period extends over 3 weeks. During this time, the plants are tended and their response to the individual treatments is evaluated. […] Tolerance to coumarone-derivative herbicides can also be assessed in Arabidopsis. In this case transgenic Arabidopsis thaliana plants are assayed for improved tolerance to coumarone-derivative herbicides in 48-well plates. Seeds are surface sterilized by stirring for 5 min in ethanol+water (70+30 by volume), rinsing one time with ethanol+water (70+30 by volume) and two times with a sterile, deionized water. […]

[3] = tested on: transgenic corn plants, Arabidopsis M335H, event SDM-71923; assay: Greenhouse testing of transgenic corn plants, Arabidopsis M335H; type: in vivo, Zea mays; conditions: corn SDM-71923, 5 days after herbicide treatment, average of 8 T1
From the text: as §1, §2, §3, §4

| SMILES | Tolerance factor [1] | Injury evaluation, scale of 1-100, bleaching phenotype ([2]; 2.5 g/ha) | Injury evaluation, scale of 1-100, bleaching phenotype ([2]; 10 g/ha) | Injury evaluation, scale of 1-100, bleaching phenotype ([2]; 40 g/ha) | Injury evaluation, scale of 1-100, bleaching phenotype ([3]; 2.5 g/ha) | Injury evaluation, scale of 1-100, bleaching phenotype ([3]; 10 g/ha) | Injury evaluation, scale of 1-100, bleaching phenotype ([3]; 40 g/ha) | Injury evaluation, scale of 1-100, bleaching phenotype ([2]; 6.25 g/ha) | Injury evaluation, scale of 1-100, bleaching phenotype ([2]; 25 g/ha) | Injury evaluation, scale of 1-100, bleaching phenotype ([2]; 100 g/ha) | Injury evaluation, scale of 1-100, bleaching phenotype ([3]; 6.25 g/ha) | Injury evaluation, scale of 1-100, bleaching phenotype ([3]; 25 g/ha) | Injury evaluation, scale of 1-100, bleaching phenotype ([3]; 100 g/ha) |
| --- | --- | --- | --- | --- | --- | --- | --- | --- | --- | --- | --- | --- | --- |
| CC1(C)c2cccnc2C(O)=C(c2ccc(Cl)nc2Cl)S1(=O)=O [Inhibitor 2, 7-(2,6-dichloro-3-pyridyl)-5,5-dimethyl-6,6-dioxo-thiopyrano[4,3-b]pyridin-8-ol] | 3 | 1 | 1 | 5 | 6 | 4 | 6 |  |  |  |  |  |  |
| Cc1c(C(=O)c2cnn(C)c2O)ccc(S(C)(=O)=O)c1C1=NOCC1 [Topramezone, reference compound] |  |  |  |  |  |  |  | 8 | 4 | 15 | 0 | 0 | 0 |
| CC1=NOC(c2c(Cl)ccc(C3=C(O)c4ncccc4C(C)(C)S3(=O)=O)c2Cl)C1 (centres unmarked) [Inhibitor 1, 7-[2,4-dichloro-3-(3-methyl-4,5-dihydroisoxazol-5-yl)phenyl]-5,5-dimethyl-6,6-dioxo-thiopyrano[4,3-b]pyridin-8-ol] | 10 |  |  |  |  |  |  |  |  |  |  |  |  |
